The record followed here is patent US11491245B2, “Gadolinium chelate compounds for use in magnetic resonance imaging” (BAYER PHARMA AKTIENGESELLSCHAFT, priority 2015, dated 2022).

Holding throughout (assay type): physicochemical
Series [1] is described as follows: Relaxivity measurements at 1.41 T. The conditions noted are these: 1.41 T, 37° C., normalized to Gd; for r1 FBS: fetal bovine serum. The method, then: Relaxivity measurements at 1.41 T were performed using a MiniSpec mq60 spectrometer (Bruker Analytik, Karlsruhe, Germany) operating at a resonance frequency of 60 MHz and a temperature of 37° C. The T1 relaxation times were determined using the standard inversion recovery (IR) method with a fixed relaxation delay of at least 5×T1. The variable inversion time (TI) was calculated automatically by the standard software of the MiniSpec mq60 (8 steps). The T2 measurements were done by using a Carr-Purcell-Meiboom-Gill (CPMG) pulse sequence, applying a relaxation delay of at least 5×T1.
Each relaxivity measurement was performed using three different Gd concentrations (3 concentrations between 0.05 and 2 mM). The T1 and T2 relaxation times of the example compounds 1-10 were measured in different media for example in water, fetal bovine serum (FBS, Sigma, F7524) and human plasma.
Human plasma preparation: For each experiment fresh blood was taken from a volunteer using 10 mL citrate-tubes (Sarstedt S-Monovette 02.1067.001, 10 mL, Citrate). The 10 mL citrate-tubes were carefully inverted 10 times to mix blood and anticoagulant and centrifuged for 15 minutes at 1811 g at room temperature (Eppendorf, Centrifuge 5810R).
The relaxivities ri (where i=1, 2) were calculated on the basis of the measured relaxation rates Ri in water and plasma: Ri=Ri(0)+ri[CGd], where Ri(0) represent the relaxation rate of the respective solvent and CGd the concentration of the compound normalized to the Gadolinium. The Gadolinium concentrations of the investigated solutions were verified by Inductively Coupled Plasma Mass Spectroscopy (ICP-MS Agilent 7500a, Waldbronn, Germany).

A short description of a further series: Water solubility. The conditions noted are these: 10 mM Tris-HCl buffer, 20° C. The method, then:
The water solubility of the compounds was determined at room temperature (20° C.) in 0.5 mL buffer solution (10 mM Tris-HCl) in the microcentrifuge tubes (Eppendorf, 2.0 mL safe-lock caps). The solid compound was added stepwise to the buffer solution. The suspension was mixed using a shaker (Heidolph Reax 2000) and treated 5 min in an ultrasound bath (Bandelin, Sonorex Super RK255H) The suspension was stored at room temperature (20° C.) over night and final Gadolinium concentration was determined by inductively coupled plasma mass spectrometry (ICP-MS).

Series [2] is described as follows: Relaxivity measurements at 3.0 T. The following applies: 37° C., normalized to Gd, average ± standard deviation. On the procedure:
Relaxivity measurements at 3.0 T were performed with a whole body 3.0 T MRI Scanner (Philips Intera, Philips Healthcare, Hamburg, Germany) using a knee-coil (SENSE-Knee-8, Philips Healthcare, Hamburg, Germany). The sample tubes (CryoTubetm Vials, Thermo Scientific 1.8 mL, Roskilde, Denmark) were positioned in 3 rows of 4 and 5 tubes in a plastic holder in a box filled with water. The temperature was adjusted to 37° C. For the MRI sequence, the shortest possible echo-time (TE) with 7.46 milliseconds was used. The inversion times were chosen to optimize the sequence to measure T1 values corresponding to the estimated T1 range of all relaxation times of contrast media containing solutions. The following inversion times (TIs) were applied: 50, 100, 150, 200, 300, 500, 700, 1000, 1400, 2100, 3200, and 4500 milliseconds. The sequence was run with a constant relaxation delay of 3.4 seconds after the registration of the last echo (variable TR in the range from 3450 to 7900 milliseconds). For details of the fit procedure, see Rohrer et. al. (Invest. Radiol. 2005; 40, 11: 715-724). The experimental matrix of the phantom measurement was 320×320.
The relaxivities were evaluated using three different concentrations of each compound (3 concentrations between 0.05 and 2 mM).
The T1 relaxation times of the Example compounds 1-6 were measured in water and human plasma. Human plasma preparation: For each experiment fresh blood was taken from a volunteer using 10 mL citrate-tubes (Sarstedt S-Monovette 02.1067.001, 10 mL, Citrate). The 10 mL citrate-tubes were carefully inverted 10 times to mix blood and anticoagulant and centrifuged for 15 minutes at 1811 g at room temperature (Eppendorf, Centrifuge 5810R).
The relaxivities ri (where i=1, 2) were calculated on the basis of the measured relaxation rates Ri in water and plasma: Ri=Ri(0)+ri[CGd], where Ri(0) represent the relaxation rate of the respective solvent and CGd the concentration of the compound normalized to the Gadolinium (Table 2).

Series [3] can be described thus: Chemical stability (autoclaving at 121° C.). The conditions noted are these: 5 mmol Gd/L in 10 mM Tris-HCl buffer, pH 7.4, 121° C. for 20 min.

`CC(C(=O)NCC(=O)NCC(CNC(=O)CNC(=O)C(C)N1CCN(CC(=O)[O-])CCN(CC(=O)[O-])CCN(CC(=O)[O-])CC1)C(=O)NCCN(CCNC(=O)C(CNC(=O)CNC(=O)C(C)N1CCN(CC(=O)[O-])CCN(CC(=O)[O-])CCN(CC(=O)[O-])CC1)CNC(=O)CNC(=O)C(C)N1CCN(CC(=O)[O-])CCN(CC(=O)[O-])CCN(CC(=O)[O-])CC1)C(=O)CNC(=O)C(C)N1CCN(CC(=O)[O-])CCN(CC(=O)[O-])CCN(CC(=O)[O-])CC1)N1CCN(CC(=O)[O-])CCN(CC(=O)[O-])CCN(CC(=O)[O-])CC1.[Gd+3].[Gd+3].[Gd+3].[Gd+3].[Gd+3]` (stereo not drawn) [Example 1]: in series [1], the “r1 FBS” value is 13.2 L/mmol/s, the r1 human plasma stood at 13.0 L/mmol/s and the r1 water turned out to be 11.1 L/mmol/s. For the same molecule, in “Water solubility”, the Solubility was above 1200 mmol Gd/L. In series [2], this molecule displayed a r1 human plasma of 10.8 ± 0.1 L/mmol/s and a r1 water of 9.5 ± 0.2 L/mmol/s. Moreover, the “appearance of the solution after autoclaving” value (“appearance of the solution” for short) in series [3] was “still clear and colorless”.

`CC(C(=O)NCC(=O)NCC(CNC(=O)CNC(=O)C(C)N1CCN(CC(=O)[O-])CCN(CC(=O)[O-])CCN(CC(=O)[O-])CC1)C(=O)NCCN(CCNC(=O)C(CNC(=O)CNC(=O)C(C)N1CCN(CC(=O)[O-])CCN(CC(=O)[O-])CCN(CC(=O)[O-])CC1)CNC(=O)CNC(=O)C(C)N1CCN(CC(=O)[O-])CCN(CC(=O)[O-])CCN(CC(=O)[O-])CC1)C(=O)C(CNC(=O)CNC(=O)C(C)N1CCN(CC(=O)[O-])CCN(CC(=O)[O-])CCN(CC(=O)[O-])CC1)CNC(=O)CNC(=O)C(C)N1CCN(CC(=O)[O-])CCN(CC(=O)[O-])CCN(CC(=O)[O-])CC1)N1CCN(CC(=O)[O-])CCN(CC(=O)[O-])CCN(CC(=O)[O-])CC1.[Gd+3].[Gd+3].[Gd+3].[Gd+3].[Gd+3].[Gd+3]` (stereo not drawn) [Example 2]: in series [1], the “r1 FBS” value is 13.4 L/mmol/s, the r1 human plasma worked out at 13.9 L/mmol/s and the r1 water was determined as 12.1 L/mmol/s. Moreover, in the series “Water solubility”, the Solubility is above 1200 mmol Gd/L. In series [2], this molecule displayed a r1 human plasma of 11.4 ± 0.1 L/mmol/s and a r1 water of 9.2 ± 0.3 L/mmol/s. Moreover, the “appearance of the solution” value in series [3] is “still clear and colorless”.

Take `CC(C(=O)NCC(=O)N(CCNC(=O)C1CN(C(=O)CNC(=O)C(C)N2CCN(CC(=O)[O-])CCN(CC(=O)[O-])CCN(CC(=O)[O-])CC2)CCN(C(=O)CNC(=O)C(C)N2CCN(CC(=O)[O-])CCN(CC(=O)[O-])CCN(CC(=O)[O-])CC2)C1)CCNC(=O)C1CN(C(=O)CNC(=O)C(C)N2CCN(CC(=O)[O-])CCN(CC(=O)[O-])CCN(CC(=O)[O-])CC2)CCN(C(=O)CNC(=O)C(C)N2CCN(CC(=O)[O-])CCN(CC(=O)[O-])CCN(CC(=O)[O-])CC2)C1)N1CCN(CC(=O)[O-])CCN(CC(=O)[O-])CCN(CC(=O)[O-])CC1.[Gd+3].[Gd+3].[Gd+3].[Gd+3].[Gd+3]` (stereo not drawn) [Example 4, Pentagadolinium [4-(1-{[2-(bis{2-[({1,4-bis[({2-[4,7,10-tris(carboxylatomethyl)-1,4,7,10-tetraazacyclododecan-1-yl]propanoyl}amino)acetyl]-1,4-diazepan-6-yl}carbonyl)-amino]ethyl}amino)-2-oxoethyl]amino}-1-oxopropan-2-yl)-7,10-bis(carboxylatomethyl)-1,4,7,10-tetraazacyclododecan-1-yl]acetate]: in series [1], the “r1 FBS” value was found to be 13.3 L/mmol/s, the r1 human plasma came out at 13.2 L/mmol/s and the r1 water is 11.5 L/mmol/s. The same molecule gave a Solubility in the series “Water solubility” above 1200 mmol Gd/L. In series [2], the r1 human plasma worked out at 11.8 ± 0.3 L/mmol/s and the r1 water was 10.1 ± 0.2 L/mmol/s.

“Hexagadolinium 2,2′,2″,2′″,2″″,2′″″,2″″″,2′″″″,2″″″″,2′″″″″,2″″″″″,2′″″″″″,2″″″″″″, 2′″″″″″″,2″″″″″″″, 2′″″″″″″″,2″″″″″″″″,2′″″″″″″″″-(1,4,7-triazonane-1,4,7-triyltris{carbonyl- 1,4-diazepane-6,1,4-triylbis[(2-oxoethane-2,1-diyl)imino(1-oxopropane-1,2-diyl)-1,4,7,10-tetraazacyclododecane-10,1,4,7-tetrayl]})octadecaacetate [Example 6]”: in series [1], the “r1 FBS” value amounted to 14.2 L/mmol/s, the r1 human plasma stood at 14.6 L/mmol/s and the r1 water was 13.4 L/mmol/s. Further, in “Water solubility”, the Solubility was above 1100 mmol Gd/L. Moreover, in series [2], the r1 human plasma came out at 12.8 ± 0.3 L/mmol/s and the r1 water came out at 11.3 ± 0.4 L/mmol/s. Also, in series [3], the “appearance of the solution” value is “still clear and colorless”.

Consider “Hexagadolinium 2,2′,2″,2′″,2″″,2′″″,2″″″,2′″″″,2″″″″,2′″″″″,2″″″″″,2′″″″″″,2″″″″″″, 2′″″″″″″,2″″″″″″″, 2′″″″″″″″,2″″″″″″″″,2′″″″″″″″″-{ethane-1,2-diylcarbamoyl-1,4-diazepane-6,1,4-triyltris[(2-oxoethane-2,1-diyl)imino(1-oxopropane-1,2-diyl)-1,4,7,10-tetraazacyclododecane-10,1,4,7-tetrayl]}octadecaacetate [Example 5]”, for which, in series [1], the “r1 FBS” value is 14.6 L/mmol/s, the r1 human plasma came out at 14.3 L/mmol/s and the r1 water worked out at 13.0 L/mmol/s. Further, the Solubility in “Water solubility” is recorded as above 1100 mmol Gd/L. In addition, in series [2], the r1 human plasma amounted to 12.4 ± 0.2 L/mmol/s and the r1 water was 10.8 ± 0.3 L/mmol/s.

On to “Tetragadolinium 2,2′,2″,2′″,2″″,2′″″,2″″″,2′″″″,2″″″″,2′″″″″,2″″″″″,2′″″″″″-(3,7,9-triazabicyclo[3.3.1]nonane-3,7-diylbis{carbonyl-1,4-diazepane-6,1,4-triylbis[(2-oxoethane-2,1-diyl)-1,4,7,10-tetraazacyclododecane-10,1,4,7-tetrayl]})dodecaacetate [Example 9]”, for which, in series [1], the “r1 FBS” value is 8.8 L/mmol/s and the r1 water was 7.4 L/mmol/s. Further, the Solubility in the series “Water solubility” is on record as above 800 mmol Gd/L.
